This note sets out measurements from patent US20230348364A1, “ISOTOPIC THYROMIMETIC COMPOUNDS” (Autobahn Therapeutics, Inc., priority 2020, published 2023).

In one assay the target is T1, TRα (Homo sapiens, UniProt P10827).
T1 construct: TR expression vector (full length TRα-CMV or TRβ-CMV); expressed in transfected cells; host or cells: HEK 293
T1 sequence (P10827 1-410 isoform P10827-2): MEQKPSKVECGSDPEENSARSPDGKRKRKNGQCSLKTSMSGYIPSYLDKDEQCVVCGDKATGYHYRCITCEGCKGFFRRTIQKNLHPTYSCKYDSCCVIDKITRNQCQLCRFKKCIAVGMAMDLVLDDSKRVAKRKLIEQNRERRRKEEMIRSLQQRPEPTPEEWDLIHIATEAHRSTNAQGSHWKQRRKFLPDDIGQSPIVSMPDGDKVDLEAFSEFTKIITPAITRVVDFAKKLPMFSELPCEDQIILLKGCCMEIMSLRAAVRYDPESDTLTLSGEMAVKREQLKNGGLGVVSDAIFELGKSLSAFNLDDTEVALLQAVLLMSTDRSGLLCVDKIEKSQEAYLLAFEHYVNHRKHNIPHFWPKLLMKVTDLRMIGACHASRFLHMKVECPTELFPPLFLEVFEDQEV
Put plainly: Transactivation assay (DR4 TRE luciferase reporter, HEK 293), TRα. Type of assay: cell-based. The following applies: HEK 293 transfected with full length TRα-CMV, 24 hours, firefly luciferase normalized to Renilla. The method, then:
(§1) The cells were trypsinized with 0.25% trypsin, then diluted to 5×10^5 cells/mL with high glucose DMEM. […] 1.5 µg of TR expression vector (full length TRα-CMV or TRβ-CMV), 1.5 µg of a reporter plasmid containing a DR4 thyroid hormone response element (TRE) direct repeat spaced by four nucleotides (AGGTCAcaggAGGTCA) cloned upstream of a minimal thymidine kinase promoter linked to a firefly luciferase coding sequence, and 0.75 µg of a pRL-SV40 constitutive Renilla luciferase reporter plasmid were diluted into 540 µl of OptiMEM. 27 µL of lipofectamine reagent was diluted into 540 µL of OptiMEM. The plasmid and lipofectamine dilutions were combined then incubated at RT for 10 min. The mixture was then diluted into 4.29 mL of OptiMEM. Plates were washed with 100 µL of phosphate buffered saline (PBS) at pH 7.2 without magnesium or calcium chloride per well. Transfection mixtures were added at 50 µL per well, then incubated at 37° C. for 4 hours. Modified DME/F-12 Ham’s medium without phenol red containing 15 mM HEPES and bicarbonate, 5 mM L-glutamine, charcoal-stripped FBS, 50 units/mL penicillin and 50 µg/mL streptomycin was added at 50 µL per well, then the plates were incubated at 37° C. for 20 hours. Drug stocks were made at 10 mM in DMSO, then serially diluted to 1X concentrations in DME/F-12 Ham’s. Plates were washed with 100 µL of PBS (pH 7.2) per well. 100 µL of each drug stock was added to the wells in triplicate, and then the plates are incubated at 37° C. for 24 hours.
(§2) Cells were assayed for luciferase activity using the Promega DualGlo kit. 50 µl of Luciferase Reagent was added per well, the plate was rocked for 15 min at RT, and then the plate was read for firefly luciferase activity. A 50 µl volume of Stop & Glo Reagent was added per well, then the plate was read for Renilla luciferase activity.

Another assay deals with T2, TRβ (Homo sapiens, UniProt P10828).
T2 construct: TR expression vector (full length TRα-CMV or TRβ-CMV); expressed in transfected cells; host or cells: HEK 293
T2 sequence (P10828 1-461): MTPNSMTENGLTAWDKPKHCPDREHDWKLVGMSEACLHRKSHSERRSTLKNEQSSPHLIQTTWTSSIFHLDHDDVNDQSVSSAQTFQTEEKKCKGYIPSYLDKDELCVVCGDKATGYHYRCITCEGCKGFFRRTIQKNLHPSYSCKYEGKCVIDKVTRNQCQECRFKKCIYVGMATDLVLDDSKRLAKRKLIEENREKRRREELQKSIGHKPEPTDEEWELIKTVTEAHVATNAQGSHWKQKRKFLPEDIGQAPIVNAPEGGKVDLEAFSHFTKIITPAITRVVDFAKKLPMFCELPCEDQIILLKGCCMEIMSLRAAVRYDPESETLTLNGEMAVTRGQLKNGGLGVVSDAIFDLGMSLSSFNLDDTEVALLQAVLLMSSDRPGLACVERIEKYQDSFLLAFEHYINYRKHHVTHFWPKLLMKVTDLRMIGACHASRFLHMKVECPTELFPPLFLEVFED
Put plainly: Transactivation assay (DR4 TRE luciferase reporter, HEK 293), TRβ. In kind it is cell-based. The conditions noted are these: HEK 293 transfected with full length TRβ-CMV, 24 hours, firefly luciferase normalized to Renilla. The method, then: as §1, §2
In general terms: Reporter assays use an easily measured gene product as a stand-in for the process of interest.

Assay [1] addresses T3, Purified recombinant human FAAH (rhFAAH) (Homo sapiens, UniProt O00519).
T3 construct: purchased Cayman Chemical (Ann Arbor, MI, USA)
T3 sequence (O00519 1-579): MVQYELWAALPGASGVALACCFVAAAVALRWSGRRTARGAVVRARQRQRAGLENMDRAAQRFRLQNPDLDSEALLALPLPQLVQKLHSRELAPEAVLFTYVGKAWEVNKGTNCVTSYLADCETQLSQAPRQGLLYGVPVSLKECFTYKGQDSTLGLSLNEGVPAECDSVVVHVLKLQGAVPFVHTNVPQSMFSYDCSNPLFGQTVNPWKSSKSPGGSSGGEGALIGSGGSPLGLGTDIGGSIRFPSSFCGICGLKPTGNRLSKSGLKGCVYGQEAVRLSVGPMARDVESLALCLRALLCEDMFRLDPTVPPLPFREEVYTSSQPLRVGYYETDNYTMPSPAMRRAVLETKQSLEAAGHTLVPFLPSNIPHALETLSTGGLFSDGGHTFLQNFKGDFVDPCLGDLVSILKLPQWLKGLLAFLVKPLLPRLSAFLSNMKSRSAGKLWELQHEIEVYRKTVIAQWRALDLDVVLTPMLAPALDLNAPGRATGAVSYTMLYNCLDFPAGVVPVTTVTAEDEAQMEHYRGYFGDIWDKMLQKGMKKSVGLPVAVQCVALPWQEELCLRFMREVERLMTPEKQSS
Put plainly: FAAH substrate evaluation (formation of acid metabolite). In kind it is biochemical. The conditions noted are these: 0.5 ng/µL rhFAAH, 1 µM test compound, Tris-EDTA buffer pH 8.0, room temperature, 0-60 minutes. The method, then:
Purified recombinant human FAAH (rhFAAH) was purchased from Cayman Chemical (Ann Arbor, MI, USA). The total volume for each incubation was 400 µL containing a final 0.5 ng/µL rhFAAH, 1 µM test compound, 1.25% ethanol or 1 µM PF-3845 (FAAH inhibitor), and 0.1% bovine serum albumin in Tris-EDTA buffer at pH 8.0). The positive control was LL-341001. The incubation was conducted at the room temperature. At 0, 5, 15, 30 and 60 minutes, an aliquot of 30 µL reaction mixtures was removed and mixed with 300 µL acetonitrile containing 5 ng/mL terfenadine and 10 ng/mL tolbutamide as internal standards to quench the reaction. The resulting mixture was centrifuged at 4000 rpm, 4° C. for 15 minutes, and 100 µL supernatant was ready for LC-MS/MS analysis to measure the formation of acid metabolite.
Acquity Ultra Performance LC system from Waters was used for sample analysis. The chromatography was performed on a reverse phase Kinetex 2.6 µm C18 column, 2.1 × 30 mm, 100 Å. The mobile phase A comprised of 0.1% formic acid in water and mobile phase B comprised of 0.1% formic acid in acetonitrile with a 2-min run time at the flow rate of 0.8 mL/min for the acid metabolite from positive control or a 1.5 min run time at the flow rate of 0.9 mL/min for the acid metabolite of test compounds. The mass spectrometer (API-5500 and API Q Trap 4000 Applied Biosystems/MDS SCIEX Instruments, Framingham, MA, USA) was operated under ESI positive or negative ion MRM mode.
The formation of acid metabolite was monitored and quantified using one calibration point of 1 µM. The observed rate constant (ke) for the acid metabolite formation was calculated by plotting the metabolite concentration versus time of incubation with the slope being ke and is shown in Table 1.

As for “2-(3,5-dichloro-4-(hydroxy-3-(propan-2-yl-d7)benzyl)phenoxy)acetic Acid [Compound 18]”, the EC50 on TRα and on TRβ was 1 to 1000 nM throughout. Consider `[2H]C([2H])([2H])C([2H])(c1cc(Cc2c(Cl)cc(OCC(=O)NC)cc2Cl)ccc1O)C([2H])([2H])[2H]` [Compound 1, 2-(3,5-dichloro-4-(4-hydroxy-3-(propan-2-yl-d7)benzyl)phenoxy)-N-Methylacetamide], for which the “ke (observed rate constant for the acid metabolite formation)” value (shortened to “ke”) in assay [1] was “A (A = ke is less than 3.0 and more than or equal to 0.1.)”. Regarding `[2H]C([2H])(c1ccc(O)c(C(C)C)c1)c1c(Cl)cc(OCC(=O)O)cc1Cl` [Compound 4, 2-(3,5-dichloro-4-((4-hydroxy-3-isopropylphenyl)methyl-d2)phenoxy)acetic Acid], the half-maximal effective concentration (EC50) on TRα and on TRβ was 1 to 1000 nM in each case. `[2H]C([2H])(c1ccc(O)c(C(C)C)c1)c1c(Cl)cc(OCC(N)=O)cc1Cl` [Compound 5, 2-(3,5-dichloro-4-((4-hydroxy-3-isopropylphenyl)methyl-d2)phenoxy)acetamide]: the “ke” value in assay [1] is “A (A = ke is less than 3.0 and more than or equal to 0.1.)”. On to `[2H]c1c(Cl)c(Cc2ccc(O)c(C(C)C)c2)c(Cl)c([2H])c1OCC(=O)O` [Compound 6, 2-(3,5-dichloro-4-(4-hydroxy-3-isopropylbenzyl)phenoxy-2,6-d2)acetic Acid], for which the EC50 at TRα and at TRβ was 1 to 1000 nM in each case. For `[2H]c1c(Cl)c(Cc2ccc(O)c(C(C)C)c2)c(Cl)c([2H])c1OCC(N)=O` [Compound 7, 2-(3,5-dichloro-4-(4-hydroxy-3-isopropylbenzyl)phenoxy-2,6-d2)acetamide], the “ke” value in assay [1] was “A (A = ke is less than 3.0 and more than or equal to 0.1.)”. For `[2H]C([2H])(Oc1cc(Cl)c(Cc2ccc(O)c(C(C)C)c2)c(Cl)c1)C(=O)O` [Compound 8, 2-(3,5-dichloro-4-(4-hydroxy-3-isopropylbenzyl)phenoxy)acetic-2,2-d2 Acid], the EC50 at TRα and at TRβ was 1 to 1000 nM each time. `[2H]C([2H])(Oc1cc(Cl)c(Cc2ccc(O)c(C(C)C)c2)c(Cl)c1)C(N)=O` [Compound 9, 2-(3,5-dichloro-4-(4-hydroxy-3-isopropylbenzyl)phenoxy)acetamide-2,2-d2]: the “ke” value in assay [1] was “A (A = ke is less than 3.0 and more than or equal to 0.1.)”. The same measure, in the same setting: the same measure for `[2H]C([2H])(c1ccc(O)c(C(C)C)c1)c1c(C)cc(OCC(=O)NC)cc1C` [Compound 13, 2-(4-((4-hydroxy-3-isopropylphenyl)methyl-d2)-3,5-dimethylphenoxy)-N-methylacetamide]: “A (A = ke is less than 3.0 and more than or equal to 0.1.)”; for `[2H]C([2H])(Oc1cc(C)c(Cc2ccc(O)c(C(C)C)c2)c(C)c1)C(=O)NC` [Compound 17, 2-(4-(4-hydroxy-3-isopropylbenzyl)-3,5-dimethylphenoxy)-N-methylacetamide-2,2-d2]: “A (A = ke is less than 3.0 and more than or equal to 0.1.)”. As to `[2H]C([2H])([2H])C([2H])(c1cc(Cc2c(Cl)cc(OCC(=O)O)cc2Cl)ccc1O)C([2H])([2H])[2H]` [Compound A-15], the concentration for a half-maximal effect (EC50) at TRα and at TRβ was 1 to 1000 nM throughout.

The EC50 is the concentration at which the effect is half-maximal. A low value points to a more potent agent.
